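Tested at 5 concentrations; 48 h exposure; 96-well plates; endpoints linearly interpolated, else capped at highest concentration. At the TGI there is no net growth.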
Tests used:
Experiment in all cases: inhibition of tumour cell growth, NCI panel, 48 h
NCI-H23 lung = test system: NCI-H23 lung
SK-MEL-28 melanoma = test system: SK-MEL-28 melanoma
NCI-H460 lung = test system: NCI-H460 lung
K-562 leukemia = test system: K-562 leukemia
HS 578T breast = test system: HS 578T breast
UACC-257 melanoma = test system: UACC-257 melanoma
RPMI-8226 leukemia = test system: RPMI-8226 leukemia
HCT-15 colon = test system: HCT-15 colon
OVCAR-5 ovarian = test system: OVCAR-5 ovarian
MALME-3M melanoma = test system: MALME-3M melanoma

| SMILES | TGI (NCI-H23 lung) [µM] | TGI (SK-MEL-28 melanoma) [µM] | TGI (NCI-H460 lung) [µM] | TGI (K-562 leukemia) [µM] | TGI (HS 578T breast) [µM] | TGI (UACC-257 melanoma) [µM] | TGI (RPMI-8226 leukemia) [µM] | TGI (HCT-15 colon) [µM] | TGI (OVCAR-5 ovarian) [µM] | TGI (MALME-3M melanoma) [µM] |
| --- | --- | --- | --- | --- | --- | --- | --- | --- | --- | --- |
| CCOc1cc2c(cc1O)/C(=N\N)C[C@@H]1[C@@H]2CC[C@]2(C)[C@@H](O)CC[C@@H]12 | 92.1 | 34.2 | > 33.6 | > 100 | > 27 | > 50.9 | > 100 | 16.8 | > 86 | 20.8 |
| CCOc1ccc2nc(NC(=O)C(=O)C(C(=O)c3ccccc3-c3ccccc3)C3OC(=O)c4ccccc43)sc2c1 (stereo not given) | 47.4 | 54.2 | 42.7 | > 67 | > 100 | > 96 | 52.4 | > 62.4 | > 100 | 34.8 |
| OCC1OC(c2scc3c(=S)nc[nH]c23)C(O)C1O (stereo not given) | 92.6 | > 100 | > 100 | > 100 | 6.52 | > 46.4 | 58 | > 95.6 | > 100 | > 72.9 |
| O=C(O)[C@H]1[C@@H](C2CCCCC2)O[C@@H](C2CCCCC2)O[C@H]1C(F)(F)F | 42.6 | 41.4 | 48.4 | > 100 | 58.8 | 96.1 | 45.3 | 88.1 | 47.4 | 73.3 |
| C=C(C)[C@@H]1CC[C@]2(C(=O)O)CC[C@]3(C)[C@H](CC[C@@H]4[C@@]5(C)CC(=O)C(C)(C)[C@@H]5CC[C@]43C)[C@@H]12 | > 25 | > 25 | 10.7 | > 25 | > 25 | 22.3 | 11.6 | > 25 | > 25 | > 25 |

From PubChem BioAssay (NCI)
